Experimental findings from PubChem BioAssay (NCI) are described below.

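Cells were grown in 96-well plates and exposed to each compound for 48 hours at five concentrations; endpoints were interpolated linearly between bracketing concentrations, or set to the highest concentration if not reached. GI50: concentration for 50% inhibition of growth. TGI: total growth inhibition.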

The experiment has as its system SN12K1 renal. In words: NCI-60 cell line screen, 48 h.

For `COc1cc([C@@H]2c3cc4c(c(O)c3C[C@H]3COC(=O)[C@@H]32)OCO4)cc(OC)c1OC`, the GI50 was 0.0526 nM and the TGI stood at 0.207 nM. Compound `COc1ccc2c(c1O)-c1cc(O)cc3c1[C@@H](C2)N(C)CC3` showed a TGI of 122000 nM.
